{"source": "patent US20260166021A1", "about": "“POLYMORPHIC FORMS OF A SOLUBLE EPOXIDE HYDROLASE INHIBITOR AND FORMULATIONS THEREOF” (EicOsis, LLC, priority 2022, published 2026)", "format_in_all_cases": "physicochemical", "key": {"[1]": {"assay": "Bulk and tapped density (tap density tester)", "excerpt": "Before milling, Form D was screened through a 30-micron mesh sieve. Then, Form D micronized using a 2-inch jet mill 70 psig feed pressure, 40 psig grinding pressure, and a 4.3 g/min powder feed rate. The micronization process provided a 69% yield and 95.6% crystallinity relative to the unmilled material."}, "[2]": {"assay": "Kinetic solubility in sodium lauryl sulfate (SLS) 60 mM, with XRD of remaining solid", "conditions": "room temperature", "method": "The mixture was stirred at room temperature with astir bar. The samples (n=3) were collected at each predetermined time points (5, 10, 15, 20, 30, 60, 90, 120, and 180 minutes) and centrifuged. The filtrate was analyzed by H PLC to determine solubility, and the remaining solid was analyzed by XRD as appropriate. Three replicates were performed for each condition.\nThe advantages of achieving higher degree of supersaturation from milled material (by providing larger surface area) and amorphous material (by providing higher solubility) were offset by phase transformation from Form D to Pattern C (i.e. hydrate form).\nIn each figure, the top spectrum corresponds to pure Form C, the second figure from the top of the figure corresponds to pure Form D, the third spectrum from the top of the figure corresponds to solid collected following 5 minutes of solubilization, the fourth spectrum from the top corresponds to solid collected following 60 minutes of solubilization, the fifth spectrum from the top corresponds to solid collected following 90 minutes of solubilization, and the bottom spectrum corresponds to solid collected following 180 minutes of solubilization. As indicated by these XRD data, the milled and amorphous materials were converted into Pattern C within 5 min after exposure to the dissolution medium. […]"}, "[3]": {"assay": "Thermal stress studies at 60° C. (XRD, HPLC)", "conditions": "incubated at 60° C., in less than 1 day", "method": "Briefly, 20 mg of solid Form A, B, C, D, E, F, G, and I were weighed into 7 mL glass vials. The vials were covered with tissue and stored in ovens set to 60° C. and ambient pressure. Following 1 and 7 days incubation, solid was collected for XRD analysis.\nAs shown in these figures, Forms B and C converted to Forms D and A, respectively, while the other forms remained unchanged.\nThe starting materials, intermediates (1 day of thermal stress), and products (7 days of thermal stress) were analyzed by H PLC. Representative chromatograms from the Form D thermal stress analyses are shown in FIGS. 81-83 (starting material, 1 day, and 7 day samples, respectively)."}, "[4]": {"assay": "PEG-stability analyses: Form C/Form D mixture slurried in PEG300 with water", "conditions": "1:1 mixture of Forms C and D slurried in PEG300; XRD", "method": "Of particular interest was whether Form D would convert to a hydrate (e.g., Form C) in the presence of water. To investigate the critical water concentration for phase interconversion between Pattern C and D, a series experiments were designed (as summarized in TABLE 16). A 1:1 mixture of Forms C and D was prepared and slurried in PEG 300 with different levels of water concentrations. Phase transformations were monitored with XRD, and are summarized in FIG. 85, which (from top to bottom) provides XRD of Form C, Form D, the mixture following incubation in PEG300 containing 75% water, the mixture following incubation in PEG300 containing 50% water, the mixture following incubation in PEG300 containing 25% water, the mixture following incubation in PEG300 containing 10% water, and the mixture following incubation in PEG300 containing 5% water. […] Form D is the stable form in PEG300 with less than 50% water."}, "[5]": {"assay": "Competitive slurry experiments (solvent-mediated polymorph transformation, XRD)", "conditions": "room temperature, water, MTBE or n-heptane, 1 and 7 days, listed as Pattern C", "method": "Polymorph stability and interconversions were analyzed with competitive slurry experiments. The competitive slurry (solvent-mediated transformation) experiments were performed on Forms A, B, D, E, F, G, and I generated through scaled-up crystallization (summarized in TABLE 11). […] The suspensions were aliquoted at one day and seven days and filtered to isolate the solids. Remaining solid was analyzed by XRD without drying.\nIn FIG. 66, the second spectrum from the top corresponds to Form E. These XRD data confirmed that Patterns C, K, and D were afforded in these solvents.\nIn order to further confirm the rank of stability order of the selected forms and extend the temperature range of stability relationship up to 70° C. covering potential API process conditions, binary form slurries were conducted with starting mixtures of (1) Forms A and D, and (2) Forms D and E. The resultant polymorphs were characterized with XRD after 1 and 7 days, the results of which analyses are shown in FIGURE S 67-68 and summarized in TABLE 13. Pattern D stood out from both binary mixture slurries of A & D and of D & E after seven-day stirring at the elevated temperature.\nAdditional single form slurry experiments were conducted on Forms A, D, and E in either water or heptane at room temperature. […] In agreement with prior competitive slurry experiments, Form D was stable at room temperature in n-heptane. Pattern E was obtained from slurries starting with Forms A and E in n-heptane. As expected, Form C was formed from the Pattern E slurry in water."}, "[6]": {"assay": "Supersaturation monitoring in PEG 300", "conditions": "PEG 300 (0.5 mL)"}, "[7]": {"assay": "Equilibrium-solubility screening in solvents and excipients", "method": "For these analyses, Form D or Form C was mixed with 0.5 or 1.0 mL of solvents and equilibrated for approximately 24 hours. The mixture was filtered through 0.45 μm centrifuge filters.\nAs expected, the compound was not easily ionized at physiologically relevant pH. […] In addition, these excipients included surfactants, co-solvents, and lipids which are amenable for use in self-emulsifying drug delivery systems (SEDDS). The XRD pattern of the starting material was maintained for each sample after equilibrium."}, "[8]": {"assay": "Solubility of Form C in binary solvent systems (TABLE 22)"}}}
{"molecule": "CC[C@H](C)C(=O)N1CCC(NC(=O)Nc2ccc(OC(F)(F)F)c(F)c2)CC1", "note": "[unmilled Form D, (S)-1-(3-fluoro-4-(trifluoromethoxy)phenyl)-3-(1-(2-methylbutanoyl)piperidin-4-yl)urea]", "values": [{"measurement": "bulk density", "setting": "[1]", "value": 0.54, "unit": "g/mL"}, {"measurement": "tapped density", "setting": "[1]", "value": 0.61, "unit": "g/mL"}, {"measurement": "time to full transition to the hydrate form (Form C)", "setting": "[2]", "value": 60, "unit": "min"}]}
{"molecule": "CC[C@H](C)C(=O)N1CCC(NC(=O)Nc2ccc(OC(F)(F)F)c(F)c2)CC1", "note": "[Form C, (S)-1-(3-fluoro-4-(trifluoromethoxy)phenyl)-3-(1-(2-methylbutanoyl)piperidin-4-yl)urea]", "values": [{"measurement": "conversion to Form A", "setting": "[3]", "value": 100, "unit": "%"}, {"measurement": "stable form in PEG300 with 50% or higher water content", "setting": "[4]", "value": "more stable"}, {"measurement": "polymorph stability in competitive slurry", "setting": "[5]", "value": "unstable hydrate"}, {"measurement": "Step → Observation", "setting": "[6]; 100 mg/mL, 1. RT stirring for 1 hr, listed as Pattern C", "value": "1. RT stirring for 1 hr →suspension"}, {"measurement": "Step → Observation", "setting": "[6]; 100 mg/mL, 2. 40 C. heating for 0.5 hr, listed as Pattern C", "value": "2. 40 °C heating for 0.5 hr →clear solution"}, {"measurement": "Step → Observation", "setting": "[6]; 100 mg/mL, 3. RT storage for ~8 days, listed as Pattern C", "value": "3. RT storage for ~8 days →clear solution"}, {"measurement": "Step → Observation", "setting": "[6]; 100 mg/mL, 4. RT storage for ~9 days, listed as Pattern C", "value": "4. RT storage for ~9 days →precipitation"}, {"measurement": "Step → Observation", "setting": "[6]; 200 mg/mL, 1. RT stirring for 1 hr", "value": "1. RT stirring for 1 hr →suspension"}, {"measurement": "Step → Observation", "setting": "[6]; 200 mg/mL, 2. 40 C. heating for 48 hr, listed as Pattern C", "value": "2. 40 °C heating for 48 hr →suspension"}, {"measurement": "Step → Observation", "setting": "[6]; 200 mg/mL, 3. 55 C. heating for <16 hr", "value": "3. 55 C. heating for <16 hr →clear solution"}, {"measurement": "Step → Observation", "setting": "[6]; 200 mg/mL, 4. RT storage for <3.5 days", "value": "4. RT storage for <3.5 days →precipitation"}, {"measurement": "Step → Observation", "setting": "[6]; 200 mg/mL, 5. 55 C. reheating for overnight", "value": "5. 55 C. reheating for overnight →clear solution"}, {"measurement": "Step → Observation", "setting": "[6]; 200 mg/mL, 6. RT storage for overnight", "value": "6. RT storage for overnight →precipitation"}, {"measurement": "XRD Pattern At Equilibrium", "setting": "[7]; PEG 300, 50%", "value": "Form C"}, {"measurement": "solubility thermodynamic at 24 h", "setting": "[7]; PEG 300, 50%, aqueous with cosolvent or surfactant or cyclodextrin, thermodynamic from solid", "value": 800, "unit": "µg/mL"}, {"measurement": "Equilibrium Solubility", "setting": "[7]; PEG 300, 100%", "value": 16700, "unit": "µg/mL"}, {"measurement": "XRD Pattern At Equilibrium", "setting": "[7]; PEG 300, 100%", "value": "Form D"}, {"measurement": "Equilibrium Solubility", "setting": "[7]; PEG 400, 50%", "value": 400, "unit": "µg/mL"}, {"measurement": "XRD Pattern At Equilibrium", "setting": "[7]; PEG 400, 50%", "value": "Form C"}, {"measurement": "Equilibrium Solubility", "setting": "[7]; PEG 400, 100%", "value": 17900, "unit": "µg/mL"}, {"measurement": "XRD Pattern At Equilibrium", "setting": "[7]; PEG 400, 100%", "value": "Form D"}, {"measurement": "solubility", "setting": "[8]; IPA/n-heptane, ratio of n-heptane to primary 21.3, organic solvent or mixture", "value": 5000, "unit": "µg/mL"}, {"measurement": "solubility", "setting": "[8]; ethanol/n-heptane, organic solvent or mixture, EtOH, ratio of n-heptane to primary 7.7 (1st test point)", "value": 38000, "unit": "µg/mL"}, {"measurement": "solubility", "setting": "[8]; ethanol/n-heptane, organic solvent or mixture, EtOH, ratio of n-heptane to primary 13.2 (2nd test point)", "value": 10000, "unit": "µg/mL"}, {"measurement": "solubility", "setting": "[8]; ethyl acetate/n-heptane, organic solvent or mixture, EtoAC, ratio of n-heptane to primary 1.4 (1st test point)", "value": 7000, "unit": "µg/mL"}, {"measurement": "solubility", "setting": "[8]; ethyl acetate/n-heptane, organic solvent or mixture, EtoAC, ratio of n-heptane to primary 2.0 (2nd test point)", "value": 4000, "unit": "µg/mL"}, {"measurement": "solubility", "setting": "[8]; ethyl acetate/n-heptane, organic solvent or mixture, EtoAC, ratio of n-heptane to primary 2.2 (3rd test point)", "value": 3000, "unit": "µg/mL"}, {"measurement": "solubility", "setting": "[8]; organic solvent or mixture, IPA, ratio of n-heptane to primary 13.3 (1st test point)", "value": 30000, "unit": "µg/mL"}, {"measurement": "solubility", "setting": "[8]; organic solvent or mixture, IPA, ratio of n-heptane to primary 13.9 (2nd test point)", "value": 10000, "unit": "µg/mL"}, {"measurement": "solubility", "setting": "[8]; organic solvent or mixture, MEK, ratio of n-heptane to primary 2.0 (1st test point)", "value": 11000, "unit": "µg/mL"}, {"measurement": "solubility", "setting": "[8]; organic solvent or mixture, MEK, ratio of n-heptane to primary 3.0 (2nd test point)", "value": 5000, "unit": "µg/mL"}, {"measurement": "solubility", "setting": "[8]; organic solvent or mixture, MEK, ratio of n-heptane to primary 3.4 (3rd test point)", "value": 4000, "unit": "µg/mL"}]}
